Assay type in all cases: biochemical
One test concerns the target T1, HGFA (Homo sapiens, UniProt Q04756).
T1 construct: purchased R&D Systems 1514-SE-010
T1 sequence (Q04756 408-655 limits assumed): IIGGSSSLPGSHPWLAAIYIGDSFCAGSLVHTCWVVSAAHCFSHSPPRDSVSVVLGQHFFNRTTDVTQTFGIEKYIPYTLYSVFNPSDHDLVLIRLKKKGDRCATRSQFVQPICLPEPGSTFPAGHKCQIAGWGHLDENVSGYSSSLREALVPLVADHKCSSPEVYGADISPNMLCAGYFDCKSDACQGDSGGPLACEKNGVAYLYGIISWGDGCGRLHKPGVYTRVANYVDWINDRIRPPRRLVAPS
T1 sequence (Q04756 373-407 partner limits assumed): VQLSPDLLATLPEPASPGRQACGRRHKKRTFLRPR
Briefly: Fluorogenic kinetic enzyme inhibitor assay, HGFA. Conditions: read-out: HGFA IC50.

The next test addresses T2, matriptase (Homo sapiens, UniProt Q9Y5Y6).
T2 construct: purchased R&D Systems 3946-SEB-010
T2 sequence (Q9Y5Y6 615-855 limits assumed): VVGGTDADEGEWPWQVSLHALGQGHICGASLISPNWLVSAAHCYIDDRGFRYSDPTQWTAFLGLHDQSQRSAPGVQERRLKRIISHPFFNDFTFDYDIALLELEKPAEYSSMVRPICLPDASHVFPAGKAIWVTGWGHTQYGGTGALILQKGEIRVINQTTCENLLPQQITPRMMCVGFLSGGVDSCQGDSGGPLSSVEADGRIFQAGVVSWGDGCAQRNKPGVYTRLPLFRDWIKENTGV
As to the kind of experiment: Fluorogenic kinetic enzyme inhibitor assay, matriptase.

A further test concerns the target Thrombin (Homo sapiens, UniProt P00734). As to the kind of experiment: Fluorogenic assay, thrombin.
A further test deals with T3, hepsin (Homo sapiens, UniProt P05981).
T3 construct: purchased R&D Systems 4776-SE-010
As to the kind of experiment: Fluorogenic kinetic enzyme inhibitor assay, hepsin. Conditions: read-out: Hepsin IC50.

Another test addresses TMPRSS2 (Homo sapiens, UniProt O15393). Briefly: Fluorogenic kinetic enzyme inhibitor assay, TMPRSS2. Details: purchased Cusabio Technology CSB-YP023924HU. Conditions: read-out: TMPRSS2 IC50.
A further test addresses T4, Factor Xa (Homo sapiens, UniProt P00742).
T4 construct: TMPRSS2; Matriptase; Hepsin; HGFA; Thrombin; Factor Xa
Briefly: Fluorogenic assay, Factor Xa. Conditions: read-out: Factor Xa IC50.

Like-named read-outs stand apart in the source and are kept apart here.

Broadly, the IC50 is the concentration that inhibits the measured activity by half.

TMPRSS2, sequence (O15393 106-492 limits assumed): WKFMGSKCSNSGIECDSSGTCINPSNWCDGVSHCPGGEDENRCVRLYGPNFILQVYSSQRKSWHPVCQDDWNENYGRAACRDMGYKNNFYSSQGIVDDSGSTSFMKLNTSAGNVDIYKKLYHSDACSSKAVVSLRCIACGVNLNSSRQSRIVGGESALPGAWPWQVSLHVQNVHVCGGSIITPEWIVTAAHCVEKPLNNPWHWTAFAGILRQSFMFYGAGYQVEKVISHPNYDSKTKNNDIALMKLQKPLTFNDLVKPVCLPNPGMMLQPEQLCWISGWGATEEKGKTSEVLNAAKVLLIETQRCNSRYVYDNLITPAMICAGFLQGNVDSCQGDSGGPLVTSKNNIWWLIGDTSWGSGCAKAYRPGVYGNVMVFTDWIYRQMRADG
T4 sequence (P00742 235-488 limits assumed): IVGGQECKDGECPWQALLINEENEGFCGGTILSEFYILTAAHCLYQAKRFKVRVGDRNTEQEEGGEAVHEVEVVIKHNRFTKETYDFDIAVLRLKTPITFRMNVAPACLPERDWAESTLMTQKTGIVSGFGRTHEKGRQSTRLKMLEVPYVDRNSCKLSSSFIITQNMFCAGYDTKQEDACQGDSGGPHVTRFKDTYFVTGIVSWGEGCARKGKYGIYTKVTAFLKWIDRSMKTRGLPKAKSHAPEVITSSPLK
T4 sequence (P00742 41-179 partner limits assumed): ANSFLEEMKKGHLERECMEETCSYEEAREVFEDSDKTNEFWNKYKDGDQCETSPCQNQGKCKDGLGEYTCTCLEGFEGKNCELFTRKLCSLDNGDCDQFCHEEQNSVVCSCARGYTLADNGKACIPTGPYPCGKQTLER
T3 sequence (P05981 163-417 limits assumed): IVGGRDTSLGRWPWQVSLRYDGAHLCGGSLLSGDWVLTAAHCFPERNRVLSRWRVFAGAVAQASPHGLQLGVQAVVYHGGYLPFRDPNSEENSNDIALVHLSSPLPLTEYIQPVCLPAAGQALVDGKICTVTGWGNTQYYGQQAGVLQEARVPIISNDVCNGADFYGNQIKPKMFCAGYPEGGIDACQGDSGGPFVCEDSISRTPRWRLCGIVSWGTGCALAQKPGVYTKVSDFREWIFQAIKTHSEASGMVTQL
T3 sequence (P05981 1-162 partner limits assumed): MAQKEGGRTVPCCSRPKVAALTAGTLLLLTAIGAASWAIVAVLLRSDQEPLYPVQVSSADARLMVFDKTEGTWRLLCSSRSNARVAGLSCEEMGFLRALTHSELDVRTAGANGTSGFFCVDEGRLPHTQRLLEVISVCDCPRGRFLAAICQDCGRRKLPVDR

Regarding `N=C(N)NCCC[C@H](NC(=O)[C@H](Cc1ccccc1)NC(=O)[C@H](CCC(N)=O)NC(=O)Cc1ccccc1)C(=O)c1nc2ccccc2s1` [CA1018, N-[(S)-1-[N-(S)-1-[(1,3-benzothiazol-2-yl)carbonyl]-4-guanidinobutylcarbamoyl]-2-phenylethyl](S)-2-(benzylcarbonylamino) glutaramide], the IC50 on HGFA was 75.2 nM; on matriptase (read-out: Matriptase IC50) it was 0.99 nM; against Thrombin it was > 20000 nM; on hepsin, 0.65 nM; at TMPRSS2, 0.407 nM; on Factor Xa, 212 nM.

In the case of `N=C(N)NCCC[C@@H](NC(=O)[C@H](Cc1ccccc1)NC(=O)[C@H](CCC(N)=O)NCc1ccccc1)C(=O)c1nc2ccccc2s1` [CA1022-1, N-[(S)-1-[N-(R)-1-[(1,3-benzothiazol-2-yl)carbonyl]-4-guanidinobutylcarbamoyl]-2-phenylethyl](S)-2-benzylaminoglutaramide], the half-maximal inhibitory concentration (IC50) on HGFA is 1300 nM; on matriptase (read-out: Matriptase IC50) it was 8.8 nM; against Thrombin it was > 20000 nM; at hepsin it was 0.83 nM; at TMPRSS2 it was 2.35 nM; at Factor Xa it was 442 nM.

For the compound `N=C(N)NCCC[C@H](NC(=O)[C@H](Cc1ccccc1)NC(=O)[C@H](CCC(N)=O)NCc1ccccc1)C(=O)c1nc2ccccc2s1` [CA1022-2, N-[(S)-1-[N-(S)-1-[(1,3-benzothiazol-2-yl)carbonyl]-4-guanidinobutylcarbamoyl]-2-phenylethyl](S)-2-benzylaminoglutaramide], the IC50 at HGFA is 50.4 nM; on matriptase (read-out: Matriptase IC50), 2.31 nM; on Thrombin, > 20000 nM; at hepsin, 0.2 nM; at TMPRSS2, 0.993 nM; on Factor Xa, 40 nM.

`N=C(N)NCCC[C@@H](NC(=O)[C@H](Cc1ccccc1)NC(=O)[C@H](CCC(N)=O)NCCc1ccccc1)C(=O)c1nc2ccccc2s1` [CA1033-1, N-[(S)-1-[N-(R)-1-[(1,3-benzothiazol-2-yl)carbonyl]-4-guanidinobutylcarbamoyl]-2-phenylethyl](S)-2-(phenethylamino)glutaramide]: the IC50 on HGFA is 2870 nM; at matriptase (read-out: Matriptase IC50), 77.9 nM; on Thrombin, > 20000 nM; on hepsin, 9.43 nM; at TMPRSS2, 16.6 nM; on Factor Xa, 16800 nM.

Take `N=C(N)NCCC[C@H](NC(=O)[C@H](Cc1ccccc1)NC(=O)[C@H](CCC(N)=O)NCCc1ccccc1)C(=O)c1nc2ccccc2s1` [CA1033-2, N-[(S)-1-[N-(S)-1-[(1,3-benzothiazol-2-yl)carbonyl]-4-guanidinobutylcarbamoyl]-2-phenylethyl](S)-2-(phenethylamino)glutaramide]: the IC50 was found to be 48.5 nM on HGFA; 2.81 nM at matriptase (read-out: Matriptase IC50); 10200 nM on Thrombin; 0.3 nM on hepsin; 0.316 nM on TMPRSS2; 1060 nM at Factor Xa.

Consider `CN(C)[C@@H](CCC(N)=O)C(=O)N[C@@H](Cc1ccccc1)C(=O)N[C@H](CCCNC(=N)N)C(=O)c1nc2ccccc2s1` [CA1041-1, N-[(S)-1-[N-(R)-1-[(1,3-benzothiazol-2-yl)carbonyl]-4-guanidinobutylcarbamoyl]-2-phenylethyl](S)-2-(dimethylamino)glutaramide], for which the IC50 on HGFA was > 20000 nM; at matriptase (read-out: Matriptase IC50), 144 nM; against Thrombin, > 20000 nM; at hepsin, 123 nM; at TMPRSS2, 18.4 nM; at Factor Xa, 7010 nM.

On to `CN(C)[C@@H](CCC(N)=O)C(=O)N[C@@H](Cc1ccccc1)C(=O)N[C@@H](CCCNC(=N)N)C(=O)c1nc2ccccc2s1` [CA1041-2, N-[(S)-1-[N-(S)-1-[(1,3-benzothiazol-2-yl)carbonyl]-4-guanidinobutylcarbamoyl]-2-phenylethyl](S)-2-(dimethylamino)glutaramide], for which the IC50 at HGFA was 609 nM; on matriptase (read-out: Matriptase IC50), 3.5 nM; at Thrombin it was > 20000 nM; on hepsin, 1.89 nM; on TMPRSS2 it was 0.86 nM; at Factor Xa, 3300 nM.

As for `N=C(N)NCCC[C@H](NC(=O)[C@H](Cc1ccccc1)NC(=O)[C@H](CCC(N)=O)NC(=O)c1ccccc1)C(=O)c1nc2ccccc2s1` [CA1043], the IC50 at HGFA was 8.45 nM; at matriptase (read-out: Matriptase IC50), 0.88 nM; at Thrombin it was > 20000 nM; at hepsin, 0.11 nM; on TMPRSS2, 0.081 nM; on Factor Xa it was 1590 nM.

As for `N=C(N)NCCC[C@@H](NC(=O)[C@H](Cc1ccccc1)NC(=O)[C@H](CCC(N)=O)N1CCCCC1)C(=O)c1nc2ccccc2s1` [CA1046-1, N-[(S)-1-[N-(R)-1-[(1,3-benzothiazol-2-yl)carbonyl]-4-guanidinobutylcarbamoyl]-2-phenylethyl](S)-2-piperidinoglutaramide], the IC50 at HGFA is > 20000 nM; at matriptase (read-out: Matriptase IC50), 1780 nM; against Thrombin, > 20000 nM; on hepsin, 105 nM; on TMPRSS2 it was 69.2 nM; on Factor Xa it was 12200 nM.

For the compound `N=C(N)NCCC[C@H](NC(=O)[C@H](Cc1ccccc1)NC(=O)[C@H](CCC(N)=O)N1CCCCC1)C(=O)c1nc2ccccc2s1` [CA1046-2, N-[(S)-1-[N-(S)-1-[(1,3-benzothiazol-2-yl)carbonyl]-4-guanidinobutylcarbamoyl]-2-phenylethyl](S)-2-piperidinoglutaramide], the IC50 on HGFA was 704 nM; at matriptase (read-out: Matriptase IC50), 41.4 nM; on Thrombin, > 20000 nM; at hepsin, 0.37 nM; at TMPRSS2, 8.23 nM; on Factor Xa it was 2070 nM.

In the case of `CC(=O)N[C@@H](Cc1cncn1COCc1ccccc1)C(=O)N[C@@H](CCCCNC(=N)N)C(=O)N[C@@H](CCC(C)C)C(=O)N[C@H](CCCNC(=N)N)C(=O)c1nc2ccccc2s1` [JH1143-1, N-[(R)-1-[(1,3-benzothiazol-2-yl)carbonyl]-4-guanidinobutyl](S)-2-[(S)-1-[(S)-2-acetylamino-3-{1-[(benzyloxy)methyl]-5-imidazolyl}propionylamino]-5-guanidinopentylcarbonylamino]-5-methylhexanamide], the IC50 came to 543 nM at HGFA; 3.02 nM against matriptase; 4890 nM against Thrombin; 1.92 nM on hepsin; 7.54 nM at TMPRSS2; 4800 nM on Factor Xa.

As for `N=C(N)NCCC[C@H](NC(=O)[C@H](Cc1ccccc1)NC(=O)OCC1c2ccccc2-c2ccccc21)C(=O)c1nc2ccccc2s1` [MF1133, (S)-1-[N-(S)-1-[(1,3-benzothiazol-2-yl)carbonyl]-4-guanidinobutylcarbamoyl]-2-phenylethyl(9H-fluoren-9-yl)methanecarbamate], the IC50 is 1930 nM on HGFA; 2560 nM on matriptase (read-out: Matriptase IC50); > 20000 nM on Thrombin; 2680 nM on hepsin; 19.7 nM on TMPRSS2; 28.4 nM on Factor Xa.

As for `CC(=O)N[C@H](Cc1c[nH]c2ccccc12)C(=O)N[C@@H](Cc1ccccc1)C(=O)N[C@@H](CCCNC(=N)N)C(=O)c1nc2ccc(C(=O)O)cc2s1` [PK-1-93, 2-[(S)-2-[(S)-2-[(R)-2-acetylamino-3-(3-indolyl)propionylamino]-3-phenylpropionylamino]-5-guanidinovaleryl]-1,3-benzothiazole-6-carboxylic acid], the IC50 came to 95.5 nM on HGFA; 136 nM at matriptase (read-out: Matriptase IC50); 19900 nM at Thrombin; 2 nM on hepsin; 30.5 nM on Factor Xa.

For the compound `CC(=O)N[C@H]1CCCCn2cc(nn2)C[C@H](C(=O)N[C@H](CCCNC(=N)N)C(=O)c2nc3ccccc3s2)NC(=O)[C@H](CC(C)C)NC1=O` [VD4118A, N-[(R)-1-[(1,3-benzothiazol-2-yl)carbonyl]-4-guanidinobutyl]-(6S,9S,12R)-6-acetylamino-9-isobutyl-7,10-dioxo-1,8,11,15,16-pentaazabicyclo[12.2.1]heptadeca-14(17),15-diene-12-carboxamide], the IC50 at HGFA is 15600 nM; against matriptase it was 19.6 nM; against Thrombin, > 20000 nM; at hepsin, 117 nM; at Factor Xa, 1930 nM.

Turning to `CC(=O)N[C@H]1Cc2ccc(cc2)OCCCC[C@@H](C(=O)N[C@H](CCCNC(=N)N)C(=O)c2nc3ccccc3s2)NC(=O)[C@@H](Cc2c[nH]c3ccccc23)NC1=O` [VD4162A, N-[(R)-1-[(1,3-benzothiazol-2-yl)carbonyl]-4-guanidinobutyl]-(7S,10R,13S)-13-acetylamino-10-[(3-indolyl)methyl]-9,12-dioxo-2-oxa-8,11-diazabicyclo[13.2.2]nonadeca-1(17),15,18-triene-7-carboxamide], the IC50 on HGFA was 52 nM; against matriptase it was 30.8 nM; against Thrombin, > 20000 nM; on hepsin, 3.05 nM; on Factor Xa, 7470 nM.
